# Test results: US20100279984A1, “PHARMACEUTICAL COMPOSITIONS CONTAINING BENFOTIAMINE AND ONE OR ONE MORE PHARMACEUTICALLY ACTIVE AGENTS FOR THE TREATMENT OF PAIN CONDITIONS OF NEUROPATHIC ORIGIN” (Merck Patent GmbH, priority 2007, published 2010)
# Legend:
# [1] = system: tactile allodynia induced by ligation of L5 and L6 spinal nerves; assay: Antiallodynic activity: tactile allodynia (von Frey paw withdrawal threshold) in L5/L6 spinal nerve ligated rats (Kim and Chung model); type: in vivo, female Wistar rats; details: for ED30 (dose producing 30% of antiallodynia): drug alone, 60 min before threshold evaluation, ±SEM; for ED30 (dose producing 30% of antiallodynia) / reduction of tactile allodynia (in words): spinal nerve ligated rats; for reduction of tactile allodynia (in words): P<0.05
# Procedure: The purpose of this study was to assess the possible synergistic interaction between gabapentin and benfotiamine in a neuropathic pain model in the rat (Kim, S. H. and Chung, J. M.: Pain 50: 355-363 (1992)). In addition, the possible synergistic interaction between gabapentin and benfotiamine was also assessed in rats with neuropathic pain. Neuropathic pain was induced by ligation of the left L5 and L6 spinal nerves of female Wistar rats. Tactile allodynia was determined by measuring paw withdrawal in response to probing with a series of calibrated von Frey filaments.
# Female Wistar rats aged 6-7 weeks (weight range, 120-140 g) from our own breeding facilities were used in this study. Animals had free access to food and drinking water before experiments. Efforts were made to minimize animal suffering and to reduce the number of animals used. All experiments followed the Guidelines on Ethical Standards for Investigation of Experimental Pain in Animals (Zimmermann. M.: Pain 16: 109-110 (1983)). Additionally, the study was approved by the Institutional Animal Care and Use Committee (Centro de Investigacion y de Estudios Avanzados del Instituto Politecnico Nacional, Mexico, D.F., Mexico).
# Evaluation of antiallodynic activity: Rats were prepared according to the method of Kim and Chung (Kim, S. H. and Chung, J. M.: Pain 50: 355-363 (1992)). Animals were anesthetized with a mixture of ketamine/xylazine (45-12 mg/kg, i.p.). After surgical preparation and exposure of the dorsal vertebral column, the L5 and L6 spinal nerves were exposed and tightly ligated with 6-0 silk suture distal to the dorsal root ganglion. For sham operated rats, the nerves were exposed but not ligated. The incisions were closed, and the animals were allowed to recover for 15 days. […] Tactile allodynia was determined by measuring paw withdrawal in response to probing with a series of calibrated fine filaments (von Frey filaments). The strength of the von Frey stimuli range from 0.4 to 15 g. Withdrawal thresholds were determined by increasing and decreasing stimulus strength eliciting paw withdrawal (Chaplan, S. R., et al.: J. Neurosci Meth. 53: 55-63 (1994)). All nerve-ligated rats were verified to be allodynic (responding to a stimulus of less than 4 g).
# (§1) Drugs: Gabapentin was purchased from Research Biochemicals International (Natick, Mass., USA). Benfotiamine was purchased from Sigma. Gabapentin and benfotiamine were dissolved in saline and given at a volume ratio of 4 ml/kg. Study design: Rats received the oral administration of saline or increasing doses of gabapentin (30-300 mg/kg), benfotiamine (75-300 mg/kg) or the combination of gabapentin and benfotiamine 60 min before evaluation of threshold in spinal nerve injured rats. Observer was unaware of the treatment in each animal. Rats in all groups were tested for possible side effects such as reduction of righting, stepping, corneal and pinna reflexes before and after drug treatment.
# Data analysis and statistics: Curves were constructed plotting the threshold for paw withdrawal as a function of time. Threshold for paw withdrawal was also expressed as the % of antiallodynia. % antiallodynia was calculated with the following equation: % antiallodynia=((area under the withdrawal theshold against time curve (AUC) of the treatment−AUC saline)/(AUC sham−AUC saline)×100. The dose-response curves were fitted using least-squares linear regression and ED30 and its standard error (SEM) were calculated according to the method described by Tallarida (Tallarida, R. J.: Drug Synergism and Dose-Effect Data Analysis. 1st Ed., New York, Chapman and Hall/CRC, pp 1-72 (2000)).
# For evaluation of the interaction between gabapentin and benfotiamine, isobolograms were constructed using ED30 values obtained when the drugs were administered alone or combined. We used ED30 instead of ED50 values because benfotiamine was not able to reach more than 30% of antiallodynia in the model. […]
# [2] = system: righting, stepping, corneal and pinna reflexes; assay: Side effect testing: righting, stepping, corneal and pinna reflexes before and after drug treatment; type: in vivo, female Wistar rats
# Procedure: as §1
Compound,ED30 (dose producing 30% of antiallodynia) ([1]; oral administration),reduction of tactile allodynia (in words) ([1]; oral administration),"maximal antiallodynic effect ([1]; oral, at 300 mg/kg)","effect on assessed reflexes (righting, stepping, corneal, pinna) ([2]; oral, at the selected doses)","antiallodynic effect compared with thiamine (in words) ([1]; oral administration, FIG. 5)","% of antiallodynia reached in the model ([1]; oral benfotiamine 75-300 mg/kg, reason for using ED30 instead of ED50)","effect on assessed reflexes (righting, stepping, corneal, pinna) ([2]; rat, in vivo, po)"
NCC1(CC(=O)O)CCCCC1 [Gabapentin],16.6 ± 2.6 mg/kg,reduced in a dose-dependent manner,100%,No reduction in the assessed reflexes,,,
C/C(=C(\CCOP(=O)(O)O)SC(=O)c1ccccc1)N(C=O)Cc1cnc(C)nc1N [Benfotiamine],47.4 ± 10 mg/kg,modest dose-dependent reduction,,,higher antiallodynic effect than thiamine,≤ 30%,no evidence of modification of assessed reflexes
